Test results taken from PubChem BioAssay (NCI).
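All cell lines were grown in 96-well plates and treated with compound for 48 hours. TGI marks complete inhibition of growth.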

Legend:
Assay in all cases: NCI tumour cell line growth inhibition, 48 h
[1] = system: MALME-3M melanoma
[2] = system: U251 CNS
[3] = system: T-47D breast
[4] = system: HT29 colon
[5] = system: ACHN renal
[6] = system: SF-268 CNS
[7] = system: HCT-15 colon
[8] = system: IGROV1 ovarian
[9] = system: HS 578T breast
[10] = system: OVCAR-5 ovarian
[11] = system: SK-MEL-5 melanoma
[12] = system: RPMI-8226 leukemia
[13] = system: NCI-H23 lung
[14] = system: K-562 leukemia
[15] = system: NCI-H460 lung
[16] = system: SF-295 CNS
[17] = system: 786-0 renal
[18] = system: NCI-H522 lung
[19] = system: KM12 colon
[20] = system: CAKI-1 renal
[21] = system: UACC-62 melanoma
[22] = system: A498 renal
[23] = system: LOX IMVI melanoma
[24] = system: OVCAR-4 ovarian
[25] = system: SK-MEL-2 melanoma
[26] = system: EKVX NSCLC
[27] = system: MDA-MB-435
[28] = system: SK-MEL-28 melanoma
[29] = system: SF-539 CNS
[30] = system: UACC-257 melanoma
[31] = system: HCC-2998 colon
[32] = system: UO-31 renal
[33] = system: SR leukemia
[34] = system: SW-620 colon
[35] = system: CCRF-CEM leukemia
[36] = system: MCF7 breast
[37] = system: HL-60(TB) leukemia
[38] = system: MDA-N
[39] = system: HOP-62 NSCLC
[40] = system: HCT-116 colon
[41] = system: A549 NSCLC
[42] = system: NCI/ADR-RES ovarian
[43] = system: SK-OV-3 ovarian
[44] = system: DU-145 prostate
[45] = system: OVCAR-8 ovarian
[46] = system: OVCAR-3 ovarian
[47] = system: MOLT-4 leukemia
[48] = system: COLO 205 colon
[49] = system: BT-549 breast
[50] = system: PC-3 prostate
[51] = system: M14 melanoma
[52] = system: SNB-19 CNS
[53] = system: SNB-75 CNS
[54] = system: HOP-92 NSCLC
[55] = system: NCI-H226 lung
[56] = system: RXF 393 renal
[57] = system: TK-10 renal
[58] = system: MDA-MB-231 breast

Molecule `CN1CCN(Cc2ccc(C(=S)Nc3ccccc3)s2)CC1` has a TGI [1] of over 100 µM, a TGI [2] of over 100 µM and a TGI [3] of over 100 µM. For the same molecule, the TGI [4] was 47.1 µM, the TGI [5] was over 100 µM and the TGI [6] was over 100 µM. The TGI [7] was 55.4 µM, the TGI [8] was 75.8 µM and the TGI [9] was over 100 µM. For the same molecule, the TGI [10] was over 100 µM, the TGI [11] was 34.1 µM and the TGI [12] was over 100 µM. For the same molecule, the TGI [13] was 61.8 µM, the TGI [14] was 95.9 µM and the TGI [15] was over 100 µM. It also gave a TGI [16] of over 100 µM, a TGI [17] of over 100 µM and a TGI [18] of over 100 µM. For the same molecule, the TGI [19] was over 100 µM, the TGI [20] was over 100 µM and the TGI [21] was 41.3 µM. The TGI [22] was over 100 µM, the TGI [23] was 31.9 µM and the TGI [24] was over 100 µM. It also gave a TGI [25] of over 100 µM, a TGI [26] of over 100 µM and a TGI [27] of over 100 µM. It also gave a TGI [28] of 36.1 µM, a TGI [29] of over 100 µM and a TGI [30] of over 100 µM. For the same molecule, the TGI [31] was over 100 µM, the TGI [32] was over 100 µM and the TGI [33] was 73 µM. It also gave a TGI [34] of over 100 µM, a TGI [35] of over 100 µM and a TGI [36] of over 100 µM. It also gave a TGI [37] of over 100 µM, a TGI [38] of over 100 µM and a TGI [39] of over 100 µM. For the same molecule, the TGI [40] was over 100 µM, the TGI [41] was over 100 µM and the TGI [42] was over 100 µM. For the same molecule, the TGI [43] was over 100 µM, the TGI [44] was over 100 µM and the TGI [45] was over 100 µM. The TGI [46] was over 100 µM, the TGI [47] was over 100 µM and the TGI [48] was 45.9 µM. The TGI [49] was 76.3 µM, the TGI [50] was over 100 µM and the TGI [51] was 31.9 µM. It also gave a TGI [52] of over 100 µM.

Work on `Cn1c(COC(=O)NC2CCCCC2)c(COC(=O)NC2CCCCC2)c2ccc3ccccc3c21` yielded a TGI [1] of over 100 µM, a TGI [2] of over 100 µM and a TGI [3] of over 100 µM. It also gave a TGI [4] of over 100 µM, a TGI [5] of 53.6 µM and a TGI [6] of over 100 µM. It also gave a TGI [7] of over 100 µM, a TGI [8] of over 100 µM and a TGI [9] of over 100 µM. For the same molecule, the TGI [10] was over 100 µM, the TGI [11] was over 100 µM and the TGI [12] was over 100 µM. For the same molecule, the TGI [13] was 71.6 µM, the TGI [14] was over 100 µM and the TGI [15] was 13.5 µM. The TGI [16] was over 100 µM, the TGI [53] was 78.9 µM and the TGI [17] was over 100 µM. It also gave a TGI [18] of 31.5 µM, a TGI [19] of over 100 µM and a TGI [20] of 70.6 µM. The TGI [21] was over 100 µM, the TGI [22] was 32 µM and the TGI [23] was over 100 µM. For the same molecule, the TGI [24] was over 100 µM, the TGI [25] was 93.4 µM and the TGI [26] was over 100 µM. For the same molecule, the TGI [54] was over 100 µM, the TGI [55] was 95.8 µM and the TGI [27] was over 100 µM. The TGI [56] was 83.3 µM, the TGI [29] was 66.2 µM and the TGI [30] was over 100 µM. It also gave a TGI [32] of over 100 µM, a TGI [33] of over 100 µM and a TGI [34] of over 100 µM. It also gave a TGI [35] of over 100 µM, a TGI [36] of over 100 µM and a TGI [38] of over 100 µM. It also gave a TGI [39] of over 100 µM, a TGI [40] of over 100 µM and a TGI [41] of over 100 µM. The TGI [42] was 62 µM, the TGI [43] was over 100 µM and the TGI [57] was over 100 µM. For the same molecule, the TGI [45] was over 100 µM, the TGI [46] was over 100 µM and the TGI [47] was over 100 µM. For the same molecule, the TGI [48] was over 100 µM, the TGI [49] was over 100 µM and the TGI [50] was over 100 µM. For the same molecule, the TGI [51] was over 100 µM, the TGI [58] was over 100 µM and the TGI [52] was over 100 µM.
